In patent US20260209219A1, “SUBSTITUTED TETRAHYDROPYRROLO-PYRIDINONE COMPOUNDS AND THEIR USE IN TREATING MEDICAL CONDITIONS” (Karuna Therapeutics, Inc., priority 2022, published 2026):
pEC50: −log10 of the molar value.

Legend:
[1] = test system: Sprague Dawley rats; assay: Amphetamine-evoked hyperlocomotion in rats (open field); type: in vivo, rat; conditions: adult male Sprague Dawley rats, 0.5 mg/kg amphetamine s.c., distance traveled over 60 min after AMP
Experimental: Animals: Adult male, Sprague Dawley rats (Envigo, Indianapolis, IN, USA) were housed in a colony maintained at 23° C. with 12 hour light/dark cycles (lights on at 0600 hour). All animals weighed 290-330 g at the beginning of the study and were equally divided into 5 groups (n=8 per group) and received one of the treatment conditions listed below. Animal protocols were approved by an Animal Care and Use Committee.
Behavioral Procedures: Studies were conducted in MedAssociates open field chambers (27.3 cm×27.3 cm×20.3 cm, MedAssociates, St. Albans, VT) in which movement was automatically tracked and recorded by 16 beam arrays. Administration pretreatment of the test article was determined to coincide with Tmax at the time of the amphetamine-evoked session with optimal route of administration. All groups were subcutaneously treated with 0.5 mg/kg amphetamine (AMP). […] Locomotor data (distance traveled) was recorded as 5-minute bins throughout the 90-minute session. […]
Statistical Analysis: Spontaneous locomotion (prior to AMP administration) was calculated as the total distance traveled during the first 30 minutes of the experimental session. AMP-evoked responses were calculated as the total distance traveled during the last 60 minutes of the experimental session which commenced immediately after AMP administration. Locomotor data were analyzed by a one-way ANOVA. […]

[2] = molecular target: T1, rM4 receptors (Rattus norvegicus, UniProt P08485); assay: Rat M4 PAM pERK assay; type: cell-based; conditions: CHO cells expressing rM4; with EC20 of acetylcholine (10 nM final)
T1 construct: expressed in transfected cells; host or cells: CHO cells
T1 sequence (P08485 1-478): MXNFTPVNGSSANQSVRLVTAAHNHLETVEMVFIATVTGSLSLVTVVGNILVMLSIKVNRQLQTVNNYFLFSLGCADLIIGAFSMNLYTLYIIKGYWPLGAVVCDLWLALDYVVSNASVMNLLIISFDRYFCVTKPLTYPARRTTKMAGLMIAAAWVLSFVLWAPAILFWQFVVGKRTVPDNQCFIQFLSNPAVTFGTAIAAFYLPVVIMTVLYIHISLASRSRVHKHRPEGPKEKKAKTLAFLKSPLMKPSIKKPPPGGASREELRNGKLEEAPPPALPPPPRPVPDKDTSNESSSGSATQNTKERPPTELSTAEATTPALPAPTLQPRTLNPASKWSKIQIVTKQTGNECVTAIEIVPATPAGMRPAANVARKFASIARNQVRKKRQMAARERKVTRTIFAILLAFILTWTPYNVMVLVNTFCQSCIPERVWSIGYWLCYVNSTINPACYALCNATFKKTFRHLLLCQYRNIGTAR
Experimental: (§1) Chinese hamster ovary (CHO) cells expressing either hM4 or rM4 receptors were frozen in assay ready vials (5×10^6 cells/vial) after bulking-up in culture. The day before an assay, vial(s) were thawed and cells seeded in 384 well white proxiplates at 1000/well for hM4 cells and at 2000/well for rM4 cells, in 10 μL of growth media (Hams/F12 with glutamax and 10% FCS) and incubated overnight at 37° C./5% CO2.
(§2) On the following morning, the growth media was removed by ‘flicking out’ over a bin, patting the inverted plate onto tissue, and then replacing with 10 μL of wash media (Hams/F12 with glutamax and 8 mM HEPES, NB: serum free). Then, the wash media was removed in the same way and replaced with 8 μL/well of the serum free media. Plates were then re-incubated for a further 4 hours at 37° C./5% CO2.
(§3) Compounds for testing were solubilized to 10 mM in DMSO and compound addition plates, consisting of ten-point concentration response curves (CRC) in duplicate points (10 μM top concentration, ½ log dilution series), were prepared by acoustic dispensing and the compound management group.
(§4) After the 4-hour incubation in serum free media, a 4 μL aliquot of the 3× compound solution containing an EC20 of acetylcholine (10 nM final concentration) was added to the cell plate using a 384 well plate to plate transfer. Then, the plate lid was replaced, and the cells incubated for 5 mins at 37° C./5% CO2. Following this final incubation, all cellular processes were stopped by the addition of 4 μL/well of lysis and blocking buffer and plates were incubated for 30 minutes at RT on an orbital shaker (gentle setting). Then, a final addition of 4 μL/well of antibody detection mix, containing both the Europium-Cryptate (donor) and d2 (acceptor) tagged detection components, was added followed by a further 2-hour incubation at RT, and then the plate was read using a TR-FRET (time resolved fluorescence resonance energy transfer) based protocol.

[3] = molecular target: T2, hM4 receptors (Homo sapiens, UniProt P08173); assay: Human M4 PAM pERK assay; type: cell-based; conditions: CHO cells expressing hM4; with EC20 of acetylcholine (10 nM final)
T2 construct: expressed in transfected cells; host or cells: CHO cells
T2 sequence (P08173 1-479): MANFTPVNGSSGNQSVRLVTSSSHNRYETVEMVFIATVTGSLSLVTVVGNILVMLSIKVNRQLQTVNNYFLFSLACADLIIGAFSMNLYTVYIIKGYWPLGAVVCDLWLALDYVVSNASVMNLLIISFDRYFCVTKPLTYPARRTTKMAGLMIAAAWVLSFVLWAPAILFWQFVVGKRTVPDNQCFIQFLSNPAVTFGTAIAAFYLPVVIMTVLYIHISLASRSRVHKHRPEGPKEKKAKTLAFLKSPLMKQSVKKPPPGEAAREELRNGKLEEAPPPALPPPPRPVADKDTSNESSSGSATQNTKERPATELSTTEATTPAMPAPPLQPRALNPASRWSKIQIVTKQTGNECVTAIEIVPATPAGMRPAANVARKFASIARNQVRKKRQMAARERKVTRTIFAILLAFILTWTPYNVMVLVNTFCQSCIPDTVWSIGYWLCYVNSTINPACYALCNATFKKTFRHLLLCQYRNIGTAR
Experimental: as §1, §2, §3, §4

| Structure (SMILES) | Dose Amount of Compound at which rats displayed a reduction in amphetamine-evoked hyperlocomotion activity [1] [mg/kg] | pEC50 [2] | pEC50 [3] |
| --- | --- | --- | --- |
| Cc1cc(=O)n(C)c2c1CN(C(=O)CC1CC1c1ccc(C(F)(F)F)cc1)C2 (single isomer, unassigned) [Compound I-7] | 32 | 6.30 to 7.00 | 6.30 to 7.00 |
| Cc1c2c(n(C)c(=O)c1F)CN(C(=O)CC1CC1c1ccc(C(F)(F)F)cc1)C2 (stereo not drawn) [Compound I-26] | 10 | > 7.00 | > 7.00 |
